{
  "source": "patent US10071133B2",
  "about": "“Method for destroying exosomes, kit for destroying exosomes, and method for isolating exosomes derived from normal cells” (priority 2015, dated 2018)",
  "key": {"[1]": {"test_system": "exosome derived from human prostate cancer cells (PC3ML)", "experiment": "Extraction of microRNA (miR-21) from exosome derived from prostate cancer cells, real-time PCR", "assay_type": "biochemical", "conditions": "100 μM peptide, 1×10^11 particles/mL PC3ML exosomes, 0.4 U/μL RNase inhibitor, 37° C., 24 hours; without peptide 3×10^−14M", "method": "A cell suspension of cell line PC3ML derived from human prostate cancer cells (provided by the National Cancer Center Research Institute) was seeded in a dish containing RPMI 1640 medium (manufactured by Thermo Fisher Scientific Inc.) containing 10% fetal bovine serum. Subsequently, the cell line was grown at 37° C. under the condition that CO2 concentration was set to 5 volume % using a CO2 incubator, and then the medium was replaced with Advanced RPMI 1640 medium (manufactured by Thermo Fisher Scientific Inc.), followed by culturing for 48 hours, and the culture solution containing exosomes was obtained. This culture solution was centrifuged at 2,000 G for 10 minutes to remove the precipitate, followed by centrifugation at 110,000 G for 70 minutes to precipitate the exosomes, and therefore an exosome fraction was recovered. The recovered exosome fraction was suspended in a phosphate buffered saline (PBS) and then stored at 4° C. Storage samples were lightly suspended with a vortex mixer (vibration mixer) before use. […]\nThe reverse transcription PCR solution obtained by the above described method was processed and by comparing the number of cycles on a calibration curve of microRNA using Taqman Assay primer (manufactured by Thermo Fisher Scientific Inc., Taqman microRNA Assays, Taqman Assay primer, and hsa-mir-21 or hsa-mir-16) and Real-Time PCR Master Mixes (manufactured by Thermo Fisher Scientific Inc., TaqMan Universal PCR Master Mix II, w/UNG) with StepOnePlus Real-Time PCR System, MiR-21 or miR-16 was quantified. […]\nThe amount of microRNA (miR-21) contained in the recovered eluate was quantified by the above described real-time PCR method. […] In addition, the destructive activity of the antimicrobial peptide used was evaluated on the basis of the following criteria based on the quantitative result of the concentration of microRNA (miR-21) performed by the real-time PCR method. […]"}, "[2]": {"test_system": "exosome fraction B derived from human breast cancer cells versus exosome fraction derived from human mammary gland cells (MCF-10A, normal cells)", "experiment": "Selectivity: miR-16 ratio, breast cancer exosomes versus mammary gland normal cell exosomes (Formula 1)", "assay_type": "biochemical", "method": "A cell suspension of cell line MDA-MB-231-luc-D3H2LN derived from human breast cancer (=MM231-luc-D3H2LN, provided by the National Cancer Center Research Institute) was seeded in a dish containing RPMI 1640 medium (manufactured by Thermo Fisher Scientific Inc.) containing 10% fetal bovine serum. Subsequently, the cell line was grown at 37° C. under the condition that CO2 concentration was set to 5 volume % using a CO2 incubator, and then the medium was replaced with Advanced RPMI 1640 medium (manufactured by Thermo Fisher Scientific Inc.), followed by culturing for 48 hours, and therefore the culture solution containing exosomes was obtained. This culture solution was centrifuged at 2,000 G for 10 minutes to remove the precipitate, followed by centrifugation at 110,000 G for 70 minutes to precipitate the exosomes, and therefore an exosome fraction B was recovered. The recovered exosome fraction B was suspended in a phosphate buffered saline (PBS) and then stored at 4° C. Storage samples were lightly suspended with a vortex mixer (vibration mixer) before use.\nA cell suspension of cell line MCF 10A derived from human mammary epithelial cells (provided by the National Cancer Center Research Institute) was seeded in a dish containing Mammary Epithelium Cell Basal Medium (manufactured by Lonza). Subsequently, the cell line was grown at 37° C. under the condition that CO2 concentration was set to 5 volume % using a CO2 incubator, and then the medium was replaced with a fresh medium, followed by culturing for 48 hours, and the culture solution containing exosomes was obtained. This culture solution was centrifuged at 2,000 G for 10 minutes to remove the precipitate, followed by centrifugation at 110,000 G for 70 minutes to precipitate the exosomes, and an exosome fraction was recovered. The recovered exosome fraction was suspended in a phosphate buffered saline (PBS) and then stored at 4° C. Storage samples were lightly suspended with a vortex mixer (vibration mixer) before use.\nMicroRNA (miR-21 or miR-16) in the reaction solution was subjected to reverse transcription PCR using reverse transcription primers (manufactured by Thermo Fisher Scientific Inc., Taqman microRNA Assays, RT primers, and hsa-mir-21 or hsa-mir-16) and a reverse transcriptase (manufactured by Thermo Fisher Scientific Inc., Taqman microRNA RT kit).\nThe reverse transcription PCR solution obtained by the above described method was processed and by comparing the number of cycles on a calibration curve of microRNA using Taqman Assay primer (manufactured by Thermo Fisher Scientific Inc., Taqman microRNA Assays, Taqman Assay primer, and hsa-mir-21 or hsa-mir-16) and Real-Time PCR Master Mixes (manufactured by Thermo Fisher Scientific Inc., TaqMan Universal PCR Master Mix II, w/UNG) with StepOnePlus Real-Time PCR System, MiR-21 or miR-16 was quantified. The calibration curve of microRNA was created using synthetic miR-21 (manufactured by Sigma-Aldrich Co. LLC.) or synthetic miR-16 (manufactured by Sigma-Aldrich Co. LLC.).\n10 μL of the exosome fraction was prepared such that PBS contains 1×10^11 particles/mL of the exosome fraction B derived from human breast cancer cells, various antimicrobial peptides shown in the following Table 4 adjusted to 100 μM, and 0.4 U/μL of RNase inhibitor (manufactured by Toyobo Co., Ltd.), followed by incubation by being left to stand at 37° C. for 24 hours.\nThereafter, the eluted MicroRNA (miR-16) was purified and recovered from the incubated solution by the same method as the above described method for extraction from the incubated solution of Examples 10 and 11 above and Comparative Examples 6 and 7 above. […]"}},
  "data": [
    {"substance": "Magainin 2", "values": [
      {"measurement": "Destructive activity (concentration of microRNA miR-21 in eluate)", "setting": "[1]", "value": "B (the concentration of microRNA is 5×10^−14M to 10×10^−14M)"},
      {"measurement": "mir-16 ratio", "setting": "[2]; Formula 1, cancer/normal (MCF-10A), 100 μM peptide, 37° C., 24 hours", "value": 26},
      {"measurement": "Selectivity", "setting": "[2]; from miR-16 ratio versus Comparative Example 8, breast cancer vs MCF-10A exosomes", "value": "B (evaluated as “B” in a case where the calculated miR-16 value was higher than the miR-16 ratio of Comparative Example 8)"}
    ]}
  ]
}
